From patent US10221173B2, “Chemical compounds” (AstraZeneca AB, priority 2017, dated 2019)
In brackets after ≈: the same amount, converted by molar mass.

Key:
[1] = molecular target: recombinant human Estrogen Receptor alpha ligand binding domain (ER alpha-LBD (GST)) (Homo sapiens (Human), UniProt P03372); experiment: ERα binding assay (LanthaScreen TR-FRET competition)
[2] = molecular target: Estrogen Receptor (ERα) in MCF-7 cells (Homo sapiens (Human), UniProt P03372); experiment: MCF-7 ER down-regulation assay (immuno-fluorescence); format: cell-based; conditions: for % downregulation (in brackets): maximum downregulation
Description: The ability of compounds to down-regulate Estrogen Receptor (ER) numbers was assessed in a cell based immuno-fluorescence assay using the MCF-7 human ductal carcinoma breast cell line. MCF-7 cells were revived directly from a cryovial (approx 5×10^6 cells) in Assay Medium (phenol red free Dulbecco's Modified Eagle's medium (DMEM); Sigma D5921) containing 2 mM L-Glutamine and 5% (v/v) Charcoal/Dextran treated foetal calf serum. Cells were syringed once using a sterile 18G×1.5 inch (1.2×40 mm) broad gauge needle and cell density was measured using a Coulter Counter (Beckman). […] Following cell seeding, plates were incubated overnight at 37° C., 5% CO2 (Liconic carousel incubator). Test data was generated using the LabCyte Echomodel 555 compound reformatter which is part of an automated workcell (Integrated Echo 2 workcell). Compound stock solutions (10 mM) of the test compounds were used to generate a 384 well compound dosing plate (Labcyte P-05525-CV1). […] 40 μL of DMSO added to wells in row P on the source plate allowed for DMSO normalisation across the dose range. To dose the control wells 40 μL of DMSO was added to row O1 and 40 μL of 100 μM fulvestrant in DMSO was added to row O3 on the compound source plate.
The Echo uses acoustic technology to perform direct microplate-to-microplate transfers of DMSO compound solutions to assay plates. The system can be programmed to transfer volumes as low as 2.5 nL in multiple increments between microplates and in so doing generates a serial dilution of compound in the assay plate which is then back-filled to normalise the DMSO concentration across the dilution range. […] The fixing method described above was carried out on the Integrated Echo 2 workcell. Immunostaining was performed using an automated AutoElisa workcell. The PBS/Proclin was aspirated from all wells and the cells permeabilised with 40 μL PBS containing 0.5% Tween™ 20 (v/v) for 1 hour at room temperature. The plates were washed three times in 250 μL of PBS/0.05% (v/v) Tween 20 with Proclin (PBST with a Biocide preservative) and then 20 μL of ERα (SP1) Rabbit monoclonal antibody (Thermofisher) 1:1000 in PBS/Tween™/3% (w/v) Bovine Serum Albumin was added. The plates were incubated overnight at 4° C. (Liconic carousel incubator) and then washed three times in 250 μL of PBS/0.05% (v/v) Tween™ 20 with Proclin (PBST). The plates were then incubated with 20 μL/well of a goat anti-rabbit IgG AlexaFluor 594 or goat anti-rabbit AlexaFluor 488 antibody (Molecular Probes) with Hoechst at 1:5000 in PBS/Tween™/3% (w/v) Bovine Serum Albumin for 1 hour at room temperature. The plates were then washed three times in 250 μL of PBS/0.05% (v/v) Tween™ 20 with Proclin (PBST with a Biocide preservative). 20 μL of PBS was added to each well and the plates covered with a black plate seal and stored at 4° C. before being read. […] The mean total intensity was normalized for cell number giving the total intensity per cell. The data was exported into a suitable software package (such as Origin) to perform curve fitting analysis.

[3] = Thermodynamic solubility (shake-flask); format: physicochemical; conditions: aqueous phosphate buffer, 25 °C, pH 7.4, aqueous buffer, thermodynamic from solid, phosphate buffer pH 7.4, 24 hours
[4] = molecular target: hERG potassium channel (Homo sapiens (Human), UniProt Q12809)
[5] = Log D (shake flask, 1-octanol/aqueous buffer); format: physicochemical; conditions: 1-octanol/aqueous buffer, pH 7.4, pH 7.4
[6] = Human plasma protein binding (equilibrium dialysis); format: in vitro ADME
Description: The automated equilibrium dialysis assay in human plasma uses the RED (Rapid Equilibrium Dialysis) Device and sample handling. The assay generally runs over two to three days including delivery of results. After dialysis for 18 hours, plasma and buffer samples are prepared for analysis by liquid chromatography and mass spectrometry. Samples are generally tested in singlicates and quantified by LC/MSMS by using a 7-point calibration curve in plasma. The compounds are pooled together in plasma pools up to 10 compounds. Three reference compounds are used in each run, Propranolol, Metoprolol and Warfarin. Warfarin is used as a control in each pool and Propranolol and Metoprolol are placed randomly in each run. An in-house Excel macro is used for preparation of files for the robot and the mass spectrometer and is also used for the calculations of fraction unbound (fu %) in plasma.

Sequence of hERG potassium channel (Q12809 whole entry): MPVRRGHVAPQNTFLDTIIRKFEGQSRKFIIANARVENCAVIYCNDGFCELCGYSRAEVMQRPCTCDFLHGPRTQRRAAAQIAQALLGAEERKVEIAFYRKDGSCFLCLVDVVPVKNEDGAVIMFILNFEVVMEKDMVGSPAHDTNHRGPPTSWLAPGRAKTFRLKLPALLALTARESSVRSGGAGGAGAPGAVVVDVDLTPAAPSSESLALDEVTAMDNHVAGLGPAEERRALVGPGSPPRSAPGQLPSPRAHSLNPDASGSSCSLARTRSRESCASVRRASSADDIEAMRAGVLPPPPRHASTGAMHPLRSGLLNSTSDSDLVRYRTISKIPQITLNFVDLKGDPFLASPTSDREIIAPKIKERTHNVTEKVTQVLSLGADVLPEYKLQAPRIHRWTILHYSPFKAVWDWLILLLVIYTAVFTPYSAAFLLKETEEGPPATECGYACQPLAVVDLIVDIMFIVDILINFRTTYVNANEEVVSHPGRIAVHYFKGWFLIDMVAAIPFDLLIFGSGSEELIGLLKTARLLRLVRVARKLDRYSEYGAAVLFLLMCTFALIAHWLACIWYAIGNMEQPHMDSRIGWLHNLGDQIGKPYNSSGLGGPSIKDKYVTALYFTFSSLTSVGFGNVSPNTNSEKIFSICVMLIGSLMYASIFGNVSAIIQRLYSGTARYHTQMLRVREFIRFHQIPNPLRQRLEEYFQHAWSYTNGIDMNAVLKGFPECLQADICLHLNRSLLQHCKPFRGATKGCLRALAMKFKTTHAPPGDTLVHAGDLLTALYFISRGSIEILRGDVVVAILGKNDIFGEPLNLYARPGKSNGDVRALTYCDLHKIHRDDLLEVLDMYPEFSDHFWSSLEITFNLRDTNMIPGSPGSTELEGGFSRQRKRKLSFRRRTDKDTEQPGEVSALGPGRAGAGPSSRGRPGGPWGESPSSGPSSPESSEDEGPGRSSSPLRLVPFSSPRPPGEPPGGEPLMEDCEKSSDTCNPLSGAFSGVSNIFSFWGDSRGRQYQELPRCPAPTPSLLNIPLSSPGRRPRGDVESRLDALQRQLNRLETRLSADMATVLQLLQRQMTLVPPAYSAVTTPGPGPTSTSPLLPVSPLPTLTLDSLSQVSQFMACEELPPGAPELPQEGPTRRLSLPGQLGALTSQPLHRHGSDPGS
Sequence of recombinant human Estrogen Receptor alpha ligand binding domain (ER alpha-LBD (GST)) (P03372 307-554): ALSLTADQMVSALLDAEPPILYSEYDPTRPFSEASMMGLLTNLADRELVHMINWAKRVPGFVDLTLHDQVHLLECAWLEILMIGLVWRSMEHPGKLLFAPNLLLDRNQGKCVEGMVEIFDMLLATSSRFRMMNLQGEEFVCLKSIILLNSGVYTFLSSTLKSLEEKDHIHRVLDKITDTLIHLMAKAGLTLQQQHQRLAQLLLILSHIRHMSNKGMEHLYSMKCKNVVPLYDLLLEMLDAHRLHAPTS
Sequence of Estrogen Receptor (ERα) in MCF-7 cells (P03372 whole entry): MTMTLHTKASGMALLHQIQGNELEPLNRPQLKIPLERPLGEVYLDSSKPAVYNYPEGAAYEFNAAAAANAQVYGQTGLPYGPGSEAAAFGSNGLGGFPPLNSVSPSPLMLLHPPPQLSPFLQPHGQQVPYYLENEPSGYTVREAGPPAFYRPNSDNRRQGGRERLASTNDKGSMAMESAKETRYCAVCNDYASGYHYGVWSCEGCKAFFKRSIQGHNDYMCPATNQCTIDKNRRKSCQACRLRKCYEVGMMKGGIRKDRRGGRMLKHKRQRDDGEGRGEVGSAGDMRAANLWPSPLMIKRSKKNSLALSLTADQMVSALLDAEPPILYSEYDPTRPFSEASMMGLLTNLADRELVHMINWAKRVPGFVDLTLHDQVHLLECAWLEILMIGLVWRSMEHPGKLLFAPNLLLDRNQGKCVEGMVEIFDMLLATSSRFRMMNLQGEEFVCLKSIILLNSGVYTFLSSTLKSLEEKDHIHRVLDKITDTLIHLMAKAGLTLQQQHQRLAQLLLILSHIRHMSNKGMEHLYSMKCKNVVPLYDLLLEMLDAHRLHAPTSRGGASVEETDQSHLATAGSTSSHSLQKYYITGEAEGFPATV

Compound	IC50 [1] [nM]	% downregulation (in brackets) [2]	solubility at 24 h [3] [µM]	IC50 [4] [nM]	logD [5]	Human plasma protein binding (% free) [6] [% free]	IC50 [2] [nM]
COc1ccc(OCCNCCCF)cc1[C@@H]1c2[nH]c3ccccc3c2C[C@@H](C)N1C[C@H](C)C(=O)O [Example 53, (S)-3-((1R,3R)-1-(5-(2-((3-fluoropropyl)amino)ethoxy)-2-methoxyphenyl)-3-methyl-1,3,4,9-tetrahydro-2H-pyrido[3,4-b]indol-2-yl)-2-methylpropanoic acid]	150	— (40%)	> 1000	> 40000	0.1	80	
C[C@@H]1Cc2c([nH]c3ccccc23)[C@@H](c2cccc(OCCNCCCF)c2C(F)F)N1CC(F)(F)CO [Example 68, 3-((1R,3R)-1-(2-(difluoromethyl)-3-(2-((3-fluoropropyl)amino)ethoxy)phenyl)-3-methyl-1,3,4,9-tetrahydro-2H-pyrido[3,4-b]indol-2-yl)-2,2-difluoropropan-1-ol]	0.69		56.6 (≈ 29.7 µg/mL)	2000	3.2	1.2	0.095
C[C@@H]1Cc2c([nH]c3ccccc23)[C@@H](c2c(Cl)ccc(OCCNCCCF)c2Cl)N1C[C@H](C)C(=O)O [Example 128, (S)-3-((1R,3R)-1-(2,6-dichloro-3-(2-((3-fluoropropyl)amino)ethoxy)phenyl)-3-methyl-1,3,4,9-tetrahydro-2H-pyrido[3,4-b]indol-2-yl)-2-methylpropanoic acid]	3.4		973 (≈ 522 µg/mL)	> 40000	1	15	1.1
COc1cc(F)c(NCCNCCCF)cc1[C@@H]1c2[nH]c3ccccc3c2C[C@@H](C)N1CC(F)(F)F [Example 91, N1-(2-fluoro-4-methoxy-5-((1R,3R)-3-methyl-2-(2,2,2-trifluoroethyl)-2,3,4,9-tetrahydro-1H-pyrido[3,4-b]indol-1-yl)phenyl)-N2-(3-fluoropropyl)ethane-1,2-diamine]	9.4		280 (≈ 143 µg/mL)	2600	2.9	0.93	15
C[C@@H]1Cc2c([nH]c3ccccc23)[C@@H](c2c(F)ccc(OCCNCCCF)c2F)N1CC1(S(C)(=O)=O)CC1 [Example 77, N-(2-(2,4-difluoro-3-((1R,3R)-3-methyl-2-((1-(methylsulfonyl)cyclopropyl)methyl)-2,3,4,9-tetrahydro-1H-pyrido[3,4-b]indol-1-yl)phenoxy)ethyl)-3-fluoropropan-1-amine]	7.3		410 (≈ 225 µg/mL)	5400	2.4	5.5	6.2
COc1ncc(NCCNCCCF)cc1[C@@H]1c2[nH]c3ccccc3c2C[C@@H](C)N1CC(F)(F)F [Example 41, N1-(3-fluoropropyl)-N2-(6-methoxy-5-((1R,3R)-3-methyl-2-(2,2,2-trifluoroethyl)-2,3,4,9-tetrahydro-1H-pyrido[3,4-b]indol-1-yl)pyridin-3-yl)ethane-1,2-diamine]	12		242 (≈ 119 µg/mL)	4900	2.9	1.8	6
C[C@@H]1Cc2c([nH]c3ccccc23)[C@@H](c2c(F)ccc(OCCN(C)CCCF)c2F)N1CC1(F)COC1 [Example 154, N-(2-(2,4-difluoro-3-((1R,3R)-2-((3-fluorooxetan-3-yl)methyl)-3-methyl-2,3,4,9-tetrahydro-1H-pyrido[3,4-b]indol-1-yl)phenoxy)ethyl)-3-fluoro-N-methylpropan-1-amine]	1.2	79%	49 (≈ 25.5 µg/mL)	4300	3.5	2.7	0.89
C[C@@H]1Cc2c([nH]c3ccccc23)[C@@H](c2cc(F)cc(OCCNCCCF)c2F)N1CC(F)(F)F [Example 31, N-(2-(2,5-difluoro-3-((1R,3R)-3-methyl-2-(2,2,2-trifluoroethyl)-2,3,4,9-tetrahydro-1H-pyrido[3,4-b]indol-1-yl)phenoxy)ethyl)-3-fluoropropan-1-amine]	5.4		40 (≈ 20 µg/mL)	11000	4.1	0.41	7.2
Cc1c(OCCNCCCF)ncnc1[C@@H]1c2[nH]c3ccccc3c2C[C@@H](C)N1CC(F)(F)F [Example 114, 3-fluoro-N-(2-((5-methyl-6-((1S,3R)-3-methyl-2-(2,2,2-trifluoroethyl)-2,3,4,9-tetrahydro-1H-pyrido[3,4-b]indol-1-yl)pyrimidin-4-yl)oxy)ethyl)propan-1-amine]	0.74		276 (≈ 132 µg/mL)	5900	3.3	1.7	0.2
Cc1ccc2[nH]c3c(c2c1)C[C@@H](C)N(CC(F)(F)CO)[C@@H]3c1c(F)cnc(OCCNCCCF)c1F [Example 66, 3-((1R,3R)-1-(3,5-difluoro-2-(2-((3-fluoropropyl)amino)ethoxy)pyridin-4-yl)-3,6-dimethyl-1,3,4,9-tetrahydro-2H-pyrido[3,4-b]indol-2-yl)-2,2-difluoropropan-1-ol]	0.71		441 (≈ 232 µg/mL)	5400	3	1.3	0.34
C[C@@H]1Cc2c([nH]c3ccc(F)cc23)[C@@H](c2c(F)ccc(NCCNCCCF)c2F)N1CC(F)(F)CO [Example 89, 3-((1R,3R)-1-(2,6-difluoro-3-((2-((3-fluoropropyl)amino)ethyl)amino)phenyl)-6-fluoro-3-methyl-1,3,4,9-tetrahydro-2H-pyrido[3,4-b]indol-2-yl)-2,2-difluoropropan-1-ol]	0.91		670 (≈ 354 µg/mL)	6100	2.7	<3.4	0.14
COc1ccc(OCCNCCCF)c(C)c1[C@@H]1c2[nH]c3ccccc3c2C[C@@H](C)N1CC(F)(F)F [Example 26, 3-fluoro-N-(2-(4-methoxy-2-methyl-3-((1R,3R)-3-methyl-2-(2,2,2-trifluoroethyl)-2,3,4,9-tetrahydro-1H-pyrido[3,4-b]indol-1-yl)phenoxy)ethyl)propan-1-amine]	0.85		8 (≈ 4.06 µg/mL)	4100	4.6	0.22	0.16
C[C@@H]1Cc2c([nH]c3ccc(F)cc23)[C@@H](c2c(F)cnc(OCCN(C)CCCF)c2F)N1CC(F)(F)CO [Example 67, 3-((1R,3R)-1-(3,5-difluoro-2-(2-((3-fluoropropyl)(methyl)amino)ethoxy)pyridin-4-yl)-6-fluoro-3-methyl-1,3,4,9-tetrahydro-2H-pyrido[3,4-b]indol-2-yl)-2,2-difluoropropan-1-ol]	0.7		80.6 (≈ 43.9 µg/mL)	5700	4	1.6	0.099
Cc1c([C@@H]2c3[nH]c4ccccc4c3C[C@@H](C)N2C[C@@H](C)C(=O)O)ccnc1OCCN(C)CCCF [Example 161, (R)-3-((1R,3R)-1-(2-(2-((3-fluoropropyl)(methyl)amino)ethoxy)-3-methylpyridin-4-yl)-3-methyl-1,3,4,9-tetrahydro-2H-pyrido[3,4-b]indol-2-yl)-2-methylpropanoic acid]	1.7		> 1000	> 40000	1.3	6.3	1.1
Cc1ccc(OCCNCCCF)c(C)c1[C@@H]1c2[nH]c3ccccc3c2C[C@@H](C)N1CC(F)(F)F [Example 79, N-(2-(2,4-dimethyl-3-((1R,3R)-3-methyl-2-(2,2,2-trifluoroethyl)-2,3,4,9-tetrahydro-1H-pyrido[3,4-b]indol-1-yl)phenoxy)ethyl)-3-fluoropropan-1-amine]	1.4		3.9 (≈ 1.92 µg/mL)	10000	4.8	<0.4	0.16
Cc1c(NCCNCCCF)ccnc1[C@@H]1c2[nH]c3ccccc3c2C[C@@H](C)N1CC(F)(F)F [Example 95, N1-(3-fluoropropyl)-N2-(3-methyl-2-((1S,3R)-3-methyl-2-(2,2,2-trifluoroethyl)-2,3,4,9-tetrahydro-1H-pyrido[3,4-b]indol-1-yl)pyridin-4-yl)ethane-1,2-diamine]	5.6		869 (≈ 415 µg/mL)	7200	2.5	4.6	3.3
COc1c(F)cc(OCCNCCCF)cc1[C@@H]1c2[nH]c3ccccc3c2C[C@@H](C)N1CC(F)(F)F [Example 27, 3-fluoro-N-(2-(3-fluoro-4-methoxy-5-((1R,3R)-3-methyl-2-(2,2,2-trifluoroethyl)-2,3,4,9-tetrahydro-1H-pyrido[3,4-b]indol-1-yl)phenoxy)ethyl)propan-1-amine]	2.7		6 (≈ 3.07 µg/mL)	4800	4.2	0.42	1.6
